Literature values as cited in paper PMC9854340 (RSC Advances, 2023).

What was measured:
[1] = tested on: HL-60 human myeloblastic leukemia cells; settings: HL-60 cells, MTT; data taken from a previous report
[2] = folding square to folded form; CH3CN-d3; van't Hoff plot; previous report

In the case of Ascidiacyclamide [Peptide 1a], the ED50 [1] is given as 32.9 ± 0.9 µg/mL, the “ΔH°” value [2] is given as -2.28 kcal/mol and the “ΔS°” value [2] is given as -0.009417 kcal/mol.
